Assay results reported in PubChem BioAssay (NCI).
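Each compound was tested at five concentrations against cells in 96-well plates for 48 hours. At the GI50, growth is halved. At the TGI there is no net growth.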

What was measured:
Experiment in all cases: inhibition of tumour cell growth, NCI panel, 48 h
SK-MEL-28 melanoma = test system: SK-MEL-28 melanoma
NCI-H23 lung = test system: NCI-H23 lung
786-0 renal = test system: 786-0 renal
BT-549 breast = test system: BT-549 breast
SR leukemia = test system: SR leukemia
EKVX NSCLC = test system: EKVX NSCLC
M14 melanoma = test system: M14 melanoma
ACHN renal = test system: ACHN renal
NCI/ADR-RES ovarian = test system: NCI/ADR-RES ovarian
KM12 colon = test system: KM12 colon
TK-10 renal = test system: TK-10 renal
SF-295 CNS = test system: SF-295 CNS
OVCAR-3 ovarian = test system: OVCAR-3 ovarian
HT29 colon = test system: HT29 colon
OVCAR-8 ovarian = test system: OVCAR-8 ovarian
IGROV1 ovarian = test system: IGROV1 ovarian
SN12C renal = test system: SN12C renal
SF-268 CNS = test system: SF-268 CNS
NCI-H460 lung = test system: NCI-H460 lung
COLO 205 colon = test system: COLO 205 colon
T-47D breast = test system: T-47D breast
PC-3 prostate = test system: PC-3 prostate
NCI-H522 lung = test system: NCI-H522 lung
MCF7 breast = test system: MCF7 breast
K-562 leukemia = test system: K-562 leukemia
HL-60(TB) leukemia = test system: HL-60(TB) leukemia
CAKI-1 renal = test system: CAKI-1 renal
UO-31 renal = test system: UO-31 renal
HCT-116 colon = test system: HCT-116 colon
MDA-MB-435 = test system: MDA-MB-435
SNB-19 CNS = test system: SNB-19 CNS
HCC-2998 colon = test system: HCC-2998 colon
OVCAR-5 ovarian = test system: OVCAR-5 ovarian
DU-145 prostate = test system: DU-145 prostate
LOX IMVI melanoma = test system: LOX IMVI melanoma
UACC-62 melanoma = test system: UACC-62 melanoma
SK-MEL-5 melanoma = test system: SK-MEL-5 melanoma
MOLT-4 leukemia = test system: MOLT-4 leukemia
RPMI-8226 leukemia = test system: RPMI-8226 leukemia
MALME-3M melanoma = test system: MALME-3M melanoma
SK-MEL-2 melanoma = test system: SK-MEL-2 melanoma
SF-539 CNS = test system: SF-539 CNS
HCT-15 colon = test system: HCT-15 colon
A549 NSCLC = test system: A549 NSCLC
SNB-75 CNS = test system: SNB-75 CNS
RXF 393 renal = test system: RXF 393 renal
SK-OV-3 ovarian = test system: SK-OV-3 ovarian
HOP-92 NSCLC = test system: HOP-92 NSCLC
SW-620 colon = test system: SW-620 colon
UACC-257 melanoma = test system: UACC-257 melanoma
CCRF-CEM leukemia = test system: CCRF-CEM leukemia
NCI-H226 lung = test system: NCI-H226 lung
U251 CNS = test system: U251 CNS
MDA-MB-231 breast = test system: MDA-MB-231 breast
OVCAR-4 ovarian = test system: OVCAR-4 ovarian
HOP-62 NSCLC = test system: HOP-62 NSCLC
A498 renal = test system: A498 renal
HS 578T breast = test system: HS 578T breast

Work on CN1CCN(Cc2ccc(NC(=O)c3cncc(C#Cc4cnc5ccc(OCC6COC6)nn45)c3)cc2C(F)(F)F)CC1 yielded a GI50 (SK-MEL-28 melanoma) of 218 nM, a TGI (SK-MEL-28 melanoma) of 809 nM and a GI50 (NCI-H23 lung) of 151 nM. For the same compound, the TGI (NCI-H23 lung) was 693 nM, the GI50 (786-0 renal) was 272 nM and the TGI (786-0 renal) was 847 nM. It also gave a GI50 (BT-549 breast) of 538 nM, a TGI (BT-549 breast) of 1180 nM and a GI50 (SR leukemia) of 147 nM. For the same compound, the TGI (SR leukemia) was 517 nM, the GI50 (EKVX NSCLC) was 273 nM and the TGI (EKVX NSCLC) was 954 nM. For the same compound, the GI50 (M14 melanoma) was 88.9 nM, the TGI (M14 melanoma) was 205 nM and the GI50 (ACHN renal) was 167 nM. The TGI (ACHN renal) was 605 nM, the GI50 (NCI/ADR-RES ovarian) was 195 nM and the TGI (NCI/ADR-RES ovarian) was 1260 nM. It also gave a GI50 (KM12 colon) of 5 nM, a TGI (KM12 colon) of 451 nM and a GI50 (TK-10 renal) of 187 nM. For the same compound, the TGI (TK-10 renal) was 570 nM, the GI50 (SF-295 CNS) was 443 nM and the TGI (SF-295 CNS) was 1120 nM. It also gave a GI50 (OVCAR-3 ovarian) of 214 nM, a TGI (OVCAR-3 ovarian) of 705 nM and a GI50 (HT29 colon) of 166 nM. For the same compound, the TGI (HT29 colon) was 687 nM, the GI50 (OVCAR-8 ovarian) was 163 nM and the TGI (OVCAR-8 ovarian) was 600 nM. The GI50 (IGROV1 ovarian) was 142 nM, the TGI (IGROV1 ovarian) was 583 nM and the GI50 (SN12C renal) was 141 nM. It also gave a TGI (SN12C renal) of 609 nM, a GI50 (SF-268 CNS) of 189 nM and a TGI (SF-268 CNS) of 629 nM. It also gave a GI50 (NCI-H460 lung) of 189 nM, a TGI (NCI-H460 lung) of 676 nM and a GI50 (COLO 205 colon) of 103 nM. For the same compound, the TGI (COLO 205 colon) was 222 nM, the GI50 (T-47D breast) was 355 nM and the TGI (T-47D breast) was 1430 nM. For the same compound, the GI50 (PC-3 prostate) was 244 nM, the TGI (PC-3 prostate) was 1450 nM and the GI50 (NCI-H522 lung) was 97.7 nM. It also gave a TGI (NCI-H522 lung) of 226 nM, a GI50 (MCF7 breast) of 96 nM and a TGI (MCF7 breast) of 528 nM. It also gave a GI50 (K-562 leukemia) of 5 nM, a TGI (K-562 leukemia) of 5120 nM and a GI50 (HL-60(TB) leukemia) of 121 nM. The TGI (HL-60(TB) leukemia) was 412 nM, the GI50 (CAKI-1 renal) was 117 nM and the TGI (CAKI-1 renal) was 432 nM. It also gave a GI50 (UO-31 renal) of 167 nM, a TGI (UO-31 renal) of 558 nM and a GI50 (HCT-116 colon) of 91.1 nM. It also gave a TGI (HCT-116 colon) of 306 nM, a GI50 (MDA-MB-435) of 144 nM and a TGI (MDA-MB-435) of 615 nM. It also gave a GI50 (SNB-19 CNS) of 363 nM, a TGI (SNB-19 CNS) of 2050 nM and a GI50 (HCC-2998 colon) of 310 nM. It also gave a TGI (HCC-2998 colon) of 1110 nM, a GI50 (OVCAR-5 ovarian) of 222 nM and a TGI (OVCAR-5 ovarian) of 812 nM. For the same compound, the GI50 (DU-145 prostate) was 177 nM, the TGI (DU-145 prostate) was 573 nM and the GI50 (LOX IMVI melanoma) was 165 nM. It also gave a TGI (LOX IMVI melanoma) of 620 nM, a GI50 (UACC-62 melanoma) of 155 nM and a TGI (UACC-62 melanoma) of 717 nM. It also gave a GI50 (SK-MEL-5 melanoma) of 552 nM, a TGI (SK-MEL-5 melanoma) of 1170 nM and a GI50 (MOLT-4 leukemia) of 129 nM. The TGI (MOLT-4 leukemia) was 941 nM, the GI50 (RPMI-8226 leukemia) was 269 nM and the TGI (RPMI-8226 leukemia) was 1260 nM. For the same compound, the GI50 (MALME-3M melanoma) was 89.5 nM, the TGI (MALME-3M melanoma) was 314 nM and the GI50 (SK-MEL-2 melanoma) was 103 nM. The TGI (SK-MEL-2 melanoma) was 237 nM, the GI50 (SF-539 CNS) was 165 nM and the TGI (SF-539 CNS) was 795 nM. The GI50 (HCT-15 colon) was 153 nM, the TGI (HCT-15 colon) was 568 nM and the GI50 (A549 NSCLC) was 174 nM. It also gave a TGI (A549 NSCLC) of 655 nM, a GI50 (SNB-75 CNS) of 182 nM and a TGI (SNB-75 CNS) of 541 nM. For the same compound, the GI50 (RXF 393 renal) was 159 nM, the TGI (RXF 393 renal) was 457 nM and the GI50 (SK-OV-3 ovarian) was 244 nM. The TGI (SK-OV-3 ovarian) was 927 nM, the GI50 (HOP-92 NSCLC) was 28 nM and the TGI (HOP-92 NSCLC) was 166 nM. For the same compound, the GI50 (SW-620 colon) was 160 nM, the TGI (SW-620 colon) was 599 nM and the GI50 (UACC-257 melanoma) was 384 nM. The TGI (UACC-257 melanoma) was 1070 nM, the GI50 (CCRF-CEM leukemia) was 184 nM and the TGI (CCRF-CEM leukemia) was 3880 nM. For the same compound, the GI50 (NCI-H226 lung) was 50.4 nM, the TGI (NCI-H226 lung) was 709 nM and the GI50 (U251 CNS) was 251 nM. For the same compound, the TGI (U251 CNS) was 935 nM, the GI50 (MDA-MB-231 breast) was 95 nM and the TGI (MDA-MB-231 breast) was 445 nM. For the same compound, the GI50 (OVCAR-4 ovarian) was 193 nM, the TGI (OVCAR-4 ovarian) was 979 nM and the GI50 (HOP-62 NSCLC) was 175 nM. The TGI (HOP-62 NSCLC) was 589 nM, the GI50 (A498 renal) was 483 nM and the TGI (A498 renal) was 1110 nM. It also gave a GI50 (HS 578T breast) of 235 nM and a TGI (HS 578T breast) of 1320 nM.
